Values quoted from earlier work as cited in patent US20080274094A1, “Molecular Complex Comprising Arbutine, Ascorbic Acid, Oleuropeina or Its Derivatives Thereof and Related Uses In Medical Field” (MED CARE S.R.L., priority 2005, published 2008).

Experiments:
TNF alpha receptors = conditions: Biochem Pharmacol 1999, Mancini et al.
[1] = system: cultured human melanocytes; conditions: Pigment Cell Res. 1998; mechanism other than induction of tyrosinase activity

Row | effect on TNF alpha receptors (TNF alpha receptors) | SMILES | pigmentation of cultured human melanocytes [1]
1 | inhibitory effect | Cc1ccc(C(=O)Nc2ccc(S(=O)(=O)O)c3cc(S(=O)(=O)O)cc(S(=O)(=O)O)c23)cc1NC(=O)c1cccc(NC(=O)Nc2cccc(C(=O)Nc3cc(C(=O)Nc4ccc(S(=O)(=O)O)c5cc(S(=O)(=O)O)cc(S(=O)(=O)O)c45)ccc3C)c2)c1 [suramin] | –
2 | – | OC[C@H]1O[C@@H](Oc2ccc(O)cc2)[C@H](O)[C@@H](O)[C@@H]1O [Arbutin] | increases the pigmentation
